Experimental data: patent US20100181035A1, “GLUCOSYLTRANSFERASES” (UNIVERSITY OF YORK, priority 2003, published 2010)

Experiments:
[1] = target: T1, glucosyltransferase 72E1 (UGT72E1) (Arabidopsis thaliana, UniProt Q94A84); experiment: Glucosyltransferase activity assay with recombinant UGT72E1, HPLC analysis; format: biochemical; conditions: substrate glucosylation; 2 μg enzyme, 1 mM phenolic substrate, 5 mM UDP-glucose, 100 mM Tris-HCl pH 7.0, 30° C., 1 h; HPLC peak area
T1 construct: made in house; host or cells: E. coli
T1 sequence (Q94A84 1-487): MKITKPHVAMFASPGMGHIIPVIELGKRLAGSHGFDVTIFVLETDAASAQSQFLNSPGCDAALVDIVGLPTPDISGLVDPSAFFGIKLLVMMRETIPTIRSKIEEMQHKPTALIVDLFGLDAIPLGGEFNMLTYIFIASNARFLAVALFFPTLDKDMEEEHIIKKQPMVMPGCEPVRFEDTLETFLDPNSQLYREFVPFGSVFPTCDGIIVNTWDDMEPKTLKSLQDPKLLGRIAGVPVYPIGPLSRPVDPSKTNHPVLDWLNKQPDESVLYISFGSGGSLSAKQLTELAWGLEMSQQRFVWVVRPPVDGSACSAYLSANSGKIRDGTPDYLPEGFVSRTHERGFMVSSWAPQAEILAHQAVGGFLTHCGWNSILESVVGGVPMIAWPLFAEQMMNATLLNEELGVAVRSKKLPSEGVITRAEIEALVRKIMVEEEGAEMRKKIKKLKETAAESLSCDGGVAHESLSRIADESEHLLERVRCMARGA
Description: Recombinant UGT72E1 was expressed and purified from E. coli as described previously (Lim et al., 2001, J. Biol. Chem. 276, 4344-4349). The enzyme (2 μg) was incubated with 1 mM phenolic substrates, 5 mM UDP-glucose, 100 mM Tris-HCl, pH 7.0 in a total volume 200 μl. The reaction mix was incubated at 30° C. for 1 h and was analysed using HPLC subsequently.
Coniferyl alcohol: 10-25% acetonitrile (0.1% TFA), 306 nm Sinapyl alcohol: 10-25% acetonitrile (0.1% TFA), 285 nm p-coumaryl alcohol: 10-25% acetonitrile (0.1% TFA), 311 nm coniferyl aldehyde: 10-47% acetonitrile (0.1% TFA), 311 nm sinapyl aldehyde: 10-47% acetonitrile (0.1% TFA), 280 nm p-coumaryl aldehyde: 10-47% acetonitrile (0.1% TFA), 315 nm

[2] = target: T2, glucosyltransferase 72E2 (UGT72E2) (Arabidopsis thaliana, UniProt Q9LVR1); experiment: Glucosyltransferase activity assay with 72E2, HPLC analysis; format: biochemical; conditions: substrate glucosylation; HPLC peak area; conditions for UGT72E1: 1 mM substrate, 5 mM UDP-glucose, pH 7.0, 30° C., 1 h
T2 sequence (Q9LVR1 1-481): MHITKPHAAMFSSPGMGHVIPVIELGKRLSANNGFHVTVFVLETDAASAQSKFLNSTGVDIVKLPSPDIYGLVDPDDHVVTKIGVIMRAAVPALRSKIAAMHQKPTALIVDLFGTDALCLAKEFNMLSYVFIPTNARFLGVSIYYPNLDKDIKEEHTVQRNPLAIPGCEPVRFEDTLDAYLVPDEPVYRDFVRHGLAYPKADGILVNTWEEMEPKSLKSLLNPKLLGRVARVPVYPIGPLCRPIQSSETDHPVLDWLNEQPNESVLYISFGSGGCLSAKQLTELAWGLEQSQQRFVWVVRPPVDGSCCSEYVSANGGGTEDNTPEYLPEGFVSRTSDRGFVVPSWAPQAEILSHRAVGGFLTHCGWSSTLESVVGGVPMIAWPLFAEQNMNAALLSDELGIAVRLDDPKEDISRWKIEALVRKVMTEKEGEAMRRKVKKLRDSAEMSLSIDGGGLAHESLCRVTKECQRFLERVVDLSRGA

SMILES	Activity (area, uv × sec) 72E1 [1]	Activity (area, uv × sec) 72E2 [2]
O=C/C=C/c1ccc(O)cc1 [p-coumaryl aldehyde]	9243651 uv × sec	2612331 uv × sec
COc1cc(/C=C/CO)cc(OC)c1O [Sinapyl alcohol]	0 uv × sec	3339410 uv × sec
OC/C=C/c1ccc(O)cc1 [p-coumaryl alcohol]	0 uv × sec	0 uv × sec
COc1cc(/C=C/C=O)ccc1O [Coniferyl aldehyde]	21950129 uv × sec	5068215 uv × sec
COc1cc(/C=C/C=O)cc(OC)c1O [Sinapyl aldehyde]	13655427 uv × sec	37002362 uv × sec
COc1cc(/C=C/CO)ccc1O [Coniferyl alcohol]	3225766 uv × sec	29756923 uv × sec
